Reference: paper PMC10800876, “Evaluation of proline-rich antimicrobial peptides as potential lead structures for novel antimycotics against Cryptococcus neoformans” (Frontiers in Microbiology, 2024)
Values after ≈ are worked out from the molar mass of the structure shown. Read-outs that look alike come from different tables or passages of the source. Non-standard residues stand in square brackets, D forms with d. Residues, ends and D or L forms follow the SMILES beside them. Orn = NCCC[C@H](N)C(=O)O

Columns and labels:
[1] = test system: C. neoformans 1841 (serotype D); conditions: for MIC (mg/L) 1841 24 h / MIC (mg/L) 1841 48 h: 50% SAB in phosphate buffer
[2] = test system: C. neoformans H99 (serotype A)
[3] = test system: C. neoformans KN99α (serotype A, mating type MATα)
[4] = test system: C. neoformans strains 1841, H99, and KN99α; experiment: Broth microdilution assay (MIC); assay type: cell-based, Cryptococcus neoformans; conditions: strains 1841, H99, and KN99α, 24 h
[5] = 1841 (serotype D, 24 h, pH 7.5)
[6] = 1841 (serotype D, 48 h, pH 7.5)
[7] = KN99α (serotype A, mating type MATα, 24 h)
[8] = KN99α (serotype A, mating type MATα, 48 h)
[9] = broth microdilution, 30°C, read after 24 h, n = 6
[10] = broth microdilution, 30°C, read after 48 h, n = 6
[11] = broth microdilution, 50% SAB in phosphate buffer pH 7.5, 5 × 10^4 CFU/mL, 30°C, read after 24 h, mean of six replicates (n = 6)
[12] = broth microdilution, 50% SAB in phosphate buffer pH 7.5, 5 × 10^4 CFU/mL, 30°C, read after 48 h, n = 6
[13] = broth microdilution, 50% SAB in phosphate buffer, 30°C, read after 24 h, n = 6
[14] = broth microdilution, 50% SAB in phosphate buffer, 30°C, read after 48 h, n = 6

Compound | MIC (μmol/L) 1841 24 h [1, 5] | MIC (μmol/L) 1841 48 h [1, 6] | MIC (μmol/L) H99 24 h ([2]; H99 (serotype A, 24 h)) | MIC (μmol/L) H99 48 h ([2]; H99 (serotype A, 48 h)) | MIC (μmol/L) KN99α 24 h [3, 7] | MIC (μmol/L) KN99α 48 h [3, 8] | MIC (mg/L) 1841 24 h [1, 9] | MIC (mg/L) 1841 48 h [1, 10] | MIC (μmol/L) 1841 24 h [1, 11] | MIC (μmol/L) 1841 48 h [1, 12] | MIC (μmol/L) H99 24 h [2, 13] | MIC (μmol/L) H99 48 h [2, 14] | MIC (μmol/L) KN99α 24 h [3, 13] | MIC (μmol/L) KN99α 48 h [3, 14] | MIC (mg/L) KN99α 24 h [3, 7] | other results
CC[C@H](C)[C@H](NC(=O)[C@@H](CCCNC(=N)N)NC(=O)[C@H](CCCNC(=N)N)NC(=O)[C@@H]1CCCN1C(=O)[C@@H]1CCCN1C(=O)[C@H](CCCNC(=N)N)NC(=O)[C@@H]1CCCN1C(=O)[C@H](CCCNC(=N)N)NC(=O)[C@@H]1CCCN1C(=O)[C@H](CC(C)C)NC(=O)[C@H](Cc1ccc(O)cc1)NC(=O)[C@@H]1CCCN1C(=O)[C@@H]1CCCN1C(=O)[C@H](CCCCN)NC(=O)[C@H](CC(=O)O)NC(=O)[C@@H](N)C(C)C)C(=O)N[C@@H](Cc1ccc(O)cc1)C(=O)N[C@@H](CC(N)=O)C(=O)N[C@H](CCCNC(=N)N)C(N)=O [Onc112] (H-VDKPPYLPRPRPPR[dR]IYN[dR]-NH2) | 3.3 µmol/L (≈ 7.89 µg/mL) | 6.7 µmol/L (≈ 16 µg/mL) | 3.3 to 6.7 µmol/L | 6.7 µmol/L (≈ 16 µg/mL) | 3.3 to 6.7 µmol/L | 6.7 to 13 µmol/L |  |  |  |  |  |  |  |  | 8 to 16 mg/L | MIC [4]: 1.6 to 6.7 µmol/L; MIC (mg/L) H99 24 h ([2]; H99 (serotype A, 24 h)): 8 to 16 mg/L; MIC (mg/L) KN99α 48 h [3, 8]: 16 to 32 mg/L
gu-LRPHPPRPRPIYVPRNNO-NH2 [Api88 rev] |  |  |  |  |  |  |  |  | 7.0 µmol/L | 7.0 µmol/L | 7.0 µmol/L | 14 µmol/L | 7.0 µmol/L | 14 µmol/L |  | 
gu-OIOIORPVYOPRPRPPHPRR-OH [Api813] |  |  |  |  |  |  | 8 mg/L | 8 mg/L | 3.1 µmol/L | 3.1 µmol/L |  |  |  |  |  | MIC (mg/L) H99 24 h [2, 13]: 4 mg/L; MIC (mg/L) H99 48 h [2, 14]: 4 to 8 mg/L; MIC (mg/L) KN99α 24 h [3, 13]: 4 to 8 mg/L; MIC (mg/L) KN99α 48 h [3, 14]: 8 mg/L
gu-OPNRYIRPRLPPHPNRPV-NH2 [Api88 scr] |  |  |  |  |  |  | 16 mg/L | 32 to 64 mg/L | 7.0 µmol/L | 14 to 28 µmol/L | 28 µmol/L | 56 µmol/L | 28 µmol/L | 56 µmol/L |  | 

Continued, in another order:

MIC (μmol/L) 1841 24 h [1, 5] | MIC (μmol/L) 1841 48 h [1, 6] | MIC (μmol/L) H99 24 h ([2]; H99 (serotype A, 24 h)) | MIC (μmol/L) H99 48 h ([2]; H99 (serotype A, 48 h)) | MIC (μmol/L) KN99α 24 h [3, 7] | MIC (μmol/L) KN99α 48 h [3, 8] | MIC (mg/L) 1841 24 h [1, 9] | MIC (mg/L) 1841 48 h [1, 10] | MIC (μmol/L) 1841 24 h [1, 11] | MIC (μmol/L) 1841 48 h [1, 12] | MIC (μmol/L) H99 24 h [2, 13] | MIC (μmol/L) H99 48 h [2, 14] | MIC (μmol/L) KN99α 24 h [3, 13] | MIC (μmol/L) KN99α 48 h [3, 14] | Compound | MIC (mg/L) KN99α 24 h [3, 7] | other results
28 µmol/L (≈ 64.6 µg/mL) | 56 µmol/L (≈ 129 µg/mL) | 28 µmol/L (≈ 64.6 µg/mL) | 56 µmol/L (≈ 129 µg/mL) | 28 µmol/L (≈ 64.6 µg/mL) | 56 µmol/L (≈ 129 µg/mL) |  |  |  |  |  |  |  |  | CC[C@H](C)[C@H](NC(=O)[C@H](Cc1ccc(O)cc1)NC(=O)[C@H](CC(N)=O)NC(=O)[C@@H](N)CCCN)C(=O)N[C@@H](CCCN)C(=O)N[C@@H](CCCNC(=N)N)C(=O)N1CCC[C@H]1C(=O)N1CCC[C@H]1C(=O)N[C@@H](CCCNC(=N)N)C(=O)N1CCC[C@H]1C(=O)N[C@@H](CCCNC(=N)N)C(=O)N1CCC[C@H]1C(=O)N[C@@H](CC(C)C)C(=O)N[C@@H](Cc1ccc(O)cc1)C(=O)N1CCC[C@H]1C(=O)N1CCC[C@H]1C(=O)N[C@@H](CCCCN)C(=O)N[C@@H](CC(=O)O)C(=O)N[C@H](C(N)=O)C(C)C [Onc72 rev] (H-[Orn]NYI[Orn]RPPRPRPLYPPKDV-NH2) |  | 
28 µmol/L (≈ 64.6 µg/mL) | 56 µmol/L (≈ 129 µg/mL) | 14 µmol/L (≈ 32.3 µg/mL) | 28 to 56 µmol/L | 14 to 28 µmol/L | 56 µmol/L (≈ 129 µg/mL) | 64 mg/L (≈ 27.8 µM) | 128 mg/L (≈ 55.5 µM) |  |  |  |  |  |  | CC[C@H](C)[C@H](NC(=O)[C@H](CCCN)NC(=O)[C@H](CCCNC(=N)N)NC(=O)[C@@H]1CCCN1C(=O)[C@@H]1CCCN1C(=O)[C@H](CCCNC(=N)N)NC(=O)[C@@H]1CCCN1C(=O)[C@H](CCCNC(=N)N)NC(=O)[C@@H]1CCCN1C(=O)[C@H](CC(C)C)NC(=O)[C@H](Cc1ccc(O)cc1)NC(=O)[C@@H]1CCCN1C(=O)[C@@H]1CCCN1C(=O)[C@H](CCCCN)NC(=O)[C@H](CC(=O)O)NC(=O)[C@@H](N)C(C)C)C(=O)N[C@@H](Cc1ccc(O)cc1)C(=O)N[C@@H](CC(N)=O)C(=O)N[C@@H](CCCN)C(N)=O [Onc72] (H-VDKPPYLPRPRPPR[Orn]IYN[Orn]-NH2; N-terminus and C-terminus assumed) | 32 to 64 mg/L | MIC (mg/L) H99 48 h ([2]; H99 (serotype A, 48 h)): 64 to 128 mg/L
